Calls of active or inactive are those of the source.
Columns and labels:
[1] = target: Tyrosine-protein phosphatase non-receptor type 11 (Homo sapiens, UniProt Q06124); test: SHP2 phosphatase inhibition, dose response, selectivity assay for STEP inhibitor project, biochemical (AID 602367); format: functional; details: read-out: IC50_Mean
[2] = target: Dual specificity protein phosphatase 3 (Homo sapiens, UniProt P51452); test: VHR phosphatase inhibition, dose response, selectivity assay for STEP inhibitor project, biochemical (AID 602374); format: functional; details: read-out: IC50_Mean
Chain of Dual specificity protein phosphatase 3 (P51452 whole entry): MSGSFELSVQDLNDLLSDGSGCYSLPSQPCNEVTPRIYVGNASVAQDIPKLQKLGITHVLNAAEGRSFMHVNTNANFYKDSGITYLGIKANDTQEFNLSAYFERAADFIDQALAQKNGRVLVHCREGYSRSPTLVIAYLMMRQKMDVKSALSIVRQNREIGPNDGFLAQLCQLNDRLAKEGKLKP

[3] = target: T1, Histone-lysine N-methyltransferase NSD2 (Homo sapiens, UniProt O96028); format: biochemical
T1 sequence (O96028 whole entry): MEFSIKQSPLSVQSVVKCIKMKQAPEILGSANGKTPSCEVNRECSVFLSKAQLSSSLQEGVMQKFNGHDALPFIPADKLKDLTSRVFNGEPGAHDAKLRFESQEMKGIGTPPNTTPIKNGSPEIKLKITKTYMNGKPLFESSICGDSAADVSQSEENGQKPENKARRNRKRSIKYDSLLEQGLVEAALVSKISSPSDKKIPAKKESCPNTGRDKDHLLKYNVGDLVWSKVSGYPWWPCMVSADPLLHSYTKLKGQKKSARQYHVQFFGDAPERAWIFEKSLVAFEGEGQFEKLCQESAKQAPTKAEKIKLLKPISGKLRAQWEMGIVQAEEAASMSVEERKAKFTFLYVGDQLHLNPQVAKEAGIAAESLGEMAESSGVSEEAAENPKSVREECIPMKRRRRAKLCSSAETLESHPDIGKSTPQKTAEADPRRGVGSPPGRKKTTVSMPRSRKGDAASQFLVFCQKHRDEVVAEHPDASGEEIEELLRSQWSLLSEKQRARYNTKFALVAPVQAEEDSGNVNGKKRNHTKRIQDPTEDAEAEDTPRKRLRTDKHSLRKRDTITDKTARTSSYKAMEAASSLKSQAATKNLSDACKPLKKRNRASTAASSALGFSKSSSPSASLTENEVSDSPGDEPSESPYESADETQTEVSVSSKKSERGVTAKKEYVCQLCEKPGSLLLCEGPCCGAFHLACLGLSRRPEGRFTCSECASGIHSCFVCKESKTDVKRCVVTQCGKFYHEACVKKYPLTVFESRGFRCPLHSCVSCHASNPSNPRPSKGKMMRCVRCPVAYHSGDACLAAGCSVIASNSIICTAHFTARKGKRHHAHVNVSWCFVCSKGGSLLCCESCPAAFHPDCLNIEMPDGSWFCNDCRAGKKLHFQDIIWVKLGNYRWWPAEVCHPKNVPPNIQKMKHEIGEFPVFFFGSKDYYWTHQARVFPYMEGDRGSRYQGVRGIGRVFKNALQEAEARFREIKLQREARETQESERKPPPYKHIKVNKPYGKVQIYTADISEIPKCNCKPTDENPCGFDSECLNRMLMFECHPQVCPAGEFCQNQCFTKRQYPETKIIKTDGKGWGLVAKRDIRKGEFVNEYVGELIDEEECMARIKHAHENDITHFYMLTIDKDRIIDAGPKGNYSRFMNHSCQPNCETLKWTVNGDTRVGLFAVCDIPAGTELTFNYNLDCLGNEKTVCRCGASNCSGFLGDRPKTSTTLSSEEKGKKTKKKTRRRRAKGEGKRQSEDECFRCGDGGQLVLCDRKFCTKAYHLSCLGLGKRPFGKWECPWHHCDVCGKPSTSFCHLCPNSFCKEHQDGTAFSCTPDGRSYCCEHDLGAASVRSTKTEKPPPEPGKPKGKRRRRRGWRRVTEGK

Genome polyprotein = Genome polyprotein (dengue virus type 2, UniProt P29990); test: Dengue-2 NS5 methyltransferase inhibitors, primary screen, biochemical, confirmation dose response (AID 588689); format: functional
Chain of Genome polyprotein (P29990 2492-3391 limits assumed): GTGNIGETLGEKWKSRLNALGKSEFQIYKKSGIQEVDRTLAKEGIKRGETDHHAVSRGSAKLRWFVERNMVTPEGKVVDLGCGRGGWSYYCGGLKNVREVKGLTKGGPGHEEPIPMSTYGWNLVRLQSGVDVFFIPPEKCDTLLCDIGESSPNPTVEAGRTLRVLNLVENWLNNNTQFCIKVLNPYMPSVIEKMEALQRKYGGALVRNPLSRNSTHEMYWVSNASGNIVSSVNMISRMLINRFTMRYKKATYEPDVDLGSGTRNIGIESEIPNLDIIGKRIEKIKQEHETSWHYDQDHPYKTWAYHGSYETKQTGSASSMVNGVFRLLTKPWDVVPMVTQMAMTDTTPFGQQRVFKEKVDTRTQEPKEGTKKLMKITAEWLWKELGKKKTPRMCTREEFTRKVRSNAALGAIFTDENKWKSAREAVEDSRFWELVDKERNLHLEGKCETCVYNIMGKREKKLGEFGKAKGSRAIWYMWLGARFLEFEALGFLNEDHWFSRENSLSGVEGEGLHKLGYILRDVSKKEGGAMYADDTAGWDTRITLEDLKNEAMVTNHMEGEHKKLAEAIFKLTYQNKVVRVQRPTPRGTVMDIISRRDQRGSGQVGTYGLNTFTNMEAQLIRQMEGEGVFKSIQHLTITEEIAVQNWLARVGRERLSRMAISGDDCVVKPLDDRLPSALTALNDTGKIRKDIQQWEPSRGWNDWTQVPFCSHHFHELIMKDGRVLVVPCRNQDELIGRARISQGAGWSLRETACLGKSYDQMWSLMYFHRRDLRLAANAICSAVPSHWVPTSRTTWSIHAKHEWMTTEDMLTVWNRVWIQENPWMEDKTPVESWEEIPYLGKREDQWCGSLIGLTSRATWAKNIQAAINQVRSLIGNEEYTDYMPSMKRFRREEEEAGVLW

[4] = target: Tyrosine-protein phosphatase non-receptor type 5 (Homo sapiens, UniProt P54829); test: STEP phosphatase inhibitors, confirmation, biochemical, fluorescence intensity, uHTS hits (AID 602372); format: functional; details: read-out: IC50_Mean
Chain of Tyrosine-protein phosphatase non-receptor type 5 (P54829 whole entry): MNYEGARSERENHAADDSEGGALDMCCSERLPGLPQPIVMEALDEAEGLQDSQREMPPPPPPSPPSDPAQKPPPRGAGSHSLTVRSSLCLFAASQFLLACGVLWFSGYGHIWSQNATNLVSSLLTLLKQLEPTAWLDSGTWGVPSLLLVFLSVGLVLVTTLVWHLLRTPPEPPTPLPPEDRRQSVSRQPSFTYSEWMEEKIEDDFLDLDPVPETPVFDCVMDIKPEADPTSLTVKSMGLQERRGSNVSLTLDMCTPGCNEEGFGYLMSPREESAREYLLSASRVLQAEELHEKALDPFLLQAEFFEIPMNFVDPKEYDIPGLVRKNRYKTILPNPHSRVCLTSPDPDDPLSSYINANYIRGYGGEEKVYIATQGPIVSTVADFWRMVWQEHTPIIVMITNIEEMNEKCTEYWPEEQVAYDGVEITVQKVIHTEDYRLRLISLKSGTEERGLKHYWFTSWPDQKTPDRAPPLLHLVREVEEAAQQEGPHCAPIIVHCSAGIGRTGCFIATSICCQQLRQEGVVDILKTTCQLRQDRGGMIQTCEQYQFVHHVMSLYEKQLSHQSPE

[5] = target: T2, Long-chain-fatty-acid--AMP ligase FadD28 (Mycobacterium tuberculosis, UniProt P9WQ59); test: Fluorescence polarization aasay to screen for inhibitors that compete for the binding of FadD28 to a bisubstrate Measured in Biochemical System Using Plate Reader - 2147-01_Inhibitor_Dose_CherryPick_Activity.; format: functional, Mycobacterium tuberculosis H37Rv
T2 sequence (P9WQ59 whole entry): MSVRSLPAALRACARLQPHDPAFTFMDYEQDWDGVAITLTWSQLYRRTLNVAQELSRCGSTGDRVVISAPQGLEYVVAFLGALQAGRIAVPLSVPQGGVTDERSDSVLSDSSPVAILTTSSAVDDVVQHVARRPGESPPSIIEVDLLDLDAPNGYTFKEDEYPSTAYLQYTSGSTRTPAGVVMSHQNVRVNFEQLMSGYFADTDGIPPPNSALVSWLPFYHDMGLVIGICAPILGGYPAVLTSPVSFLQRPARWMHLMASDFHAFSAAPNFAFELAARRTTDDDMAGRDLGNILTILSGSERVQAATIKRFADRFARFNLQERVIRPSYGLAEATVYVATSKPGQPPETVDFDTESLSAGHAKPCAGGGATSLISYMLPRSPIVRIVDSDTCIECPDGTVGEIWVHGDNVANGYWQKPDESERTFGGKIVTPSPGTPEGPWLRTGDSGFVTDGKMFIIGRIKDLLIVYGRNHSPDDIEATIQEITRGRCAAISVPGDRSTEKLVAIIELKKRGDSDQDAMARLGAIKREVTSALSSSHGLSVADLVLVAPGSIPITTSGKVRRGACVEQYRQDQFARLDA

[6] = target: T3, Scavenger receptor class B member 1 (Mus musculus, UniProt Q61009); test: inhibitors of SR-BI-mediated HDL uptake, dose response, cell-based, ldlA[mSR-BI] CHO, DiI fluorescence, dry powder, set 10 (AID 624029); format: functional
T3 sequence (Q61009 whole entry): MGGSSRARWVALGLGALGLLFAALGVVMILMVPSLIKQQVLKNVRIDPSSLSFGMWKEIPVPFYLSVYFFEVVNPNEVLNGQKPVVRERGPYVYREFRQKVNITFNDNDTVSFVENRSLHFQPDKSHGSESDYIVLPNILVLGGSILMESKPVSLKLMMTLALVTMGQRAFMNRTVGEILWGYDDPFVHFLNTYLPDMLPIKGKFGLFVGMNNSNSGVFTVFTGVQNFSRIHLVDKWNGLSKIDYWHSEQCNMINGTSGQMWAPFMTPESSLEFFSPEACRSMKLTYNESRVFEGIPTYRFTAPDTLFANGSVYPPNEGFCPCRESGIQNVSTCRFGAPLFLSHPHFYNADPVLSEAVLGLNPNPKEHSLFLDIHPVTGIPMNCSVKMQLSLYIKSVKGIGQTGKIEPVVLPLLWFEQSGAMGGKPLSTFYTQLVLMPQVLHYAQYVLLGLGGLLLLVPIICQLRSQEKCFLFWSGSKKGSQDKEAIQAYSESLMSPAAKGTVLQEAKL

[7] = target: T3, Scavenger receptor class B member 1; test: inhibitors of SR-BI dependent HDL uptake, dose response, ldlA[mSR-BI] CHO cells, fluorescence plate reader, dry powder, set 9 (AID 623880); format: functional, cell-based
Beta-lactamase [8] = target: T4, Beta-lactamase (Salmonella choleraesuis (strain SC-B67), UniProt Q5J463)
T4 sequence (Q5J463 whole entry): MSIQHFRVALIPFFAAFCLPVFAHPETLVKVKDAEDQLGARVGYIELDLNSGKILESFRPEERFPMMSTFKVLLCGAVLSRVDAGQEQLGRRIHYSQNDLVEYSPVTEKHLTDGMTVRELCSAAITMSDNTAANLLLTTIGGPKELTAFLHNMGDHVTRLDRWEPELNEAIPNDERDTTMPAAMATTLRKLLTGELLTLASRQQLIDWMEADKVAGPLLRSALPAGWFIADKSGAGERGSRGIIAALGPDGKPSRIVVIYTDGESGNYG

Beta-lactamase [9] = target: T5, Beta-lactamase (Pseudomonas aeruginosa, UniProt Q79MP6)
T5 sequence (Q79MP6 whole entry): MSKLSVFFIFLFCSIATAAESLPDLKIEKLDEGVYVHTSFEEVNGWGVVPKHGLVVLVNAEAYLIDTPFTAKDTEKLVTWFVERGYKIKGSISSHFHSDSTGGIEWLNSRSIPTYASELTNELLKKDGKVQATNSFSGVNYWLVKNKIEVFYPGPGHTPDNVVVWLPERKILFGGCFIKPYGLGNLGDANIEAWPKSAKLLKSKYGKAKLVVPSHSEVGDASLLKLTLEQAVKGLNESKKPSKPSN

[10] = target: T6, Beta-2 adrenergic receptor (Homo sapiens, UniProt P07550); test: beta2AR agonists driving receptor internalization, dose response, cell-based, FAP fluorogen, flow cytometry, cherry pick 1 (AID 588763); format: functional
T6 sequence (P07550 whole entry): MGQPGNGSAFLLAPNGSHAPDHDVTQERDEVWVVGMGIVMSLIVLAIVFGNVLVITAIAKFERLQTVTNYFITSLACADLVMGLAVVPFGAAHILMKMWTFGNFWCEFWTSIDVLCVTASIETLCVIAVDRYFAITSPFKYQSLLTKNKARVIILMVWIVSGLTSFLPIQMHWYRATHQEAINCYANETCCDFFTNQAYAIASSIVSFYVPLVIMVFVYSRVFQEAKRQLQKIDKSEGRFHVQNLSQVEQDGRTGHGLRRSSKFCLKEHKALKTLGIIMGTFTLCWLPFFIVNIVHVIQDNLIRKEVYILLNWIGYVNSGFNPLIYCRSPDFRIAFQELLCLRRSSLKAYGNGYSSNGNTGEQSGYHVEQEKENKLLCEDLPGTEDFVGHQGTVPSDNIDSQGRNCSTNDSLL

[11] = target: T6, Beta-2 adrenergic receptor; test: Dose response for HTS for Beta-2AR agonists via FAP method from Powderset3.; format: functional
[12] = Counterscreen for activators of the function of SWI/SNF related, matrix associated, actin dependent regulator of chromatin, subfamily a, member 2 (SMARCA2, BRM): Luminescence-based cell-based high throughput dose response assay to identify non-selective compounds using the VP16 reporter assay.; format: functional
[13] = target: SWI/SNF-related matrix-associated actin-dependent regulator of chromatin subfamily A member 2 (Homo sapiens, UniProt P51531); test: Luminescence-based cell-based high throughput dose response assay to identify activators of the function of SWI/SNF related, matrix associated, actin dependent regulator of chromatin, subfamily a, member 2 (SMARCA2, BRM).; format: functional
[14] = target: T7, Small ubiquitin-related modifier 2 (Homo sapiens, UniProt P61956); test: SUMO2–SIM peptide binding inhibitors, dose response, selectivity assay for SUMO1 interaction inhibitor project, biochemical, fluorescence polarization, uHTS hits (AID 624385); format: functional; details: read-out: IC50_Mean
T7 sequence (P61956 whole entry): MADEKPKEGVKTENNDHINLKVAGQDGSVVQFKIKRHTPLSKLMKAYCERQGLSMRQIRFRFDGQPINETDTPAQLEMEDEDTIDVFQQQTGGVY

[15] = target: T8, Small ubiquitin-related modifier 1 (Homo sapiens, UniProt P63165); test: inhibitors of SUMO1 peptide binding, dose response, biochemical, fluorescence polarization, uHTS hits (AID 624382); format: functional; details: read-out: IC50_Mean
T8 sequence (P63165 whole entry): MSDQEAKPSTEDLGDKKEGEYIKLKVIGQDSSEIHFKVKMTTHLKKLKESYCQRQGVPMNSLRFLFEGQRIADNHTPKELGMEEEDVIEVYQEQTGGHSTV

[16] = target: DNA (cytosine-5)-methyltransferase 1 (Homo sapiens, UniProt P26358); test: DNMT1 methyltransferase inhibitors, confirmation, biochemical, fluorescent molecular beacon (AID 602386); format: functional
[17] = target: T7, Small ubiquitin-related modifier 2; test: inhibitors of SUMO2 protein-protein interaction, dose response, selectivity assay for SUMO1 interaction inhibitor project, biochemical, FRET, human SUMO2, uHTS hits (AID 624384); format: functional; details: read-out: IC50_Mean
[18] = target: T8, Small ubiquitin-related modifier 1; test: inhibitors of SUMO1 partner interactions, dose response, biochemical, FRET (AID 624383); format: functional; details: read-out: IC50_Mean
[19] = target: T9, High affinity choline transporter 1 (Homo sapiens, UniProt Q9GZV3); test: CHT inhibitors reducing choline uptake, dose response, orthogonal assay for CHT inhibitor project, cell-based, 3H-choline uptake, radioactive, HEK293 CHT LV-AA (AID 651756); format: functional
T9 sequence (Q9GZV3 whole entry): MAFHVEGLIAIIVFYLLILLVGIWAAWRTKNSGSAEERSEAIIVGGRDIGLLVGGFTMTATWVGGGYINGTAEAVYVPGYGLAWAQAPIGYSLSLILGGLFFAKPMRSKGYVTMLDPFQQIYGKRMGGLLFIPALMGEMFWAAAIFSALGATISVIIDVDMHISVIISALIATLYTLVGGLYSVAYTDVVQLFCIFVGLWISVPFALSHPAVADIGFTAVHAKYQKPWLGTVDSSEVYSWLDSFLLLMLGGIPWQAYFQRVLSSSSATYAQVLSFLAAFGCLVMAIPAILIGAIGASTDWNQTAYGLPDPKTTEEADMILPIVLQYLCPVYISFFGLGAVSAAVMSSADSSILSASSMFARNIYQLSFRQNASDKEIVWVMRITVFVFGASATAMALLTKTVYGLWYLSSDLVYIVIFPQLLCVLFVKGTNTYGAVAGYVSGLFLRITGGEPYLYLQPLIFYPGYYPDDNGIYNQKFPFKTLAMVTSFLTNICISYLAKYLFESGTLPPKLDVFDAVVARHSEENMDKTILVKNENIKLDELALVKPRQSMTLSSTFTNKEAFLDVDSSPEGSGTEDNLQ

[20] = ARNT/TACC3 interaction disruptors, potency, confirmation, biochemical, AlphaScreen, cherry-picked samples (AID 651703); format: functional, Homo sapiens;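 note: His-tagged ARNT PAS-B domain paired with GST-TACC3 E629A dimer coactivator fragment; potency of inhibitors that break up the complex and lower AlphaScreen signal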
[21] = HEK293 cell viability, dose response, counter-screen for EBV LMP1 inhibitor project, dry powder, set 2 (AID 624374); format: functional
[22] = target: Arf-GAP with SH3 domain, ANK repeat and PH domain-containing protein 1 (Homo sapiens, UniProt Q9ULH1); format: functional;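 note: biochemical fluorescence polarization dose–response screen measuring inhibition of ASAP1; ASAP1 GAP domain stimulating GTP hydrolysis by truncated human ARF1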
[23] = target: ADP-ribosylation factor GTPase-activating protein 1 (Rattus norvegicus, UniProt Q62848); test: Fluorescence polarization-based biochemical high throughput dose response screening assay to identify inhibitors of ADP-ribosylation factor GTPase activating protein 1 (ARFGAP1).; format: functional
Chain of ADP-ribosylation factor GTPase-activating protein 1 (Q62848 whole entry): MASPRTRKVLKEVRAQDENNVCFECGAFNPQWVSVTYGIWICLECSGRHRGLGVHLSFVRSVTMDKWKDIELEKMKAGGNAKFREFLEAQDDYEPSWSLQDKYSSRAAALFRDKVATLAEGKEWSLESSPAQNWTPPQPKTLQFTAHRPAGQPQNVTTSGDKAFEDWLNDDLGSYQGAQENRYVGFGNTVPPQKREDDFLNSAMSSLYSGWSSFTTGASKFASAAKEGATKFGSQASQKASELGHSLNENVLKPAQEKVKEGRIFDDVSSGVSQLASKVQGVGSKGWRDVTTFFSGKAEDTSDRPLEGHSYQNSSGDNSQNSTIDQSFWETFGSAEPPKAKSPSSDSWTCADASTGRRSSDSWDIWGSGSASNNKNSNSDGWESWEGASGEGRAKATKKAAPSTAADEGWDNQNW

Beta-lactamase [24] = target: T4, Beta-lactamase; test: Epi-absorbance-based counterscreen for selective VIM-2 inhibitors: dose response biochemical high throughput screening assay to identify inhibitors of TEM-1 serine-beta-lactamase.
Beta Lactamase [25] = target: T10, Beta Lactamase (Pseudomonas aeruginosa, UniProt Q932Y6); test: VIM-2 metallo-beta-lactamase inhibitor potency, dose response, biochemical, epi-absorbance readout, selective inhibitors (AID 1919)
T10 sequence (Q932Y6 whole entry): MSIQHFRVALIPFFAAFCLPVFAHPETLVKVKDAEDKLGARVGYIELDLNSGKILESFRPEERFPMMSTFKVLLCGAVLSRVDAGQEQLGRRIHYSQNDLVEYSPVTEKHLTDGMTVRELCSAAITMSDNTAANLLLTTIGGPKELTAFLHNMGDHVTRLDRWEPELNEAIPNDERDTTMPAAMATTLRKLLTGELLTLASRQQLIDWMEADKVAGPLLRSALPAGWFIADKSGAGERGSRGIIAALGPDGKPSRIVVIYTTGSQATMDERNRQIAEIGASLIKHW

Beta Lactamase [26] = target: T10, Beta Lactamase; test: VIM-2 inhibitor FRET-based artefact check, dose response, artefact control for selective VIM-2 inhibitor project, biochemical, FRET readout, CCF2 substrate (AID 1926)
Beta-lactamase [27] = target: T5, Beta-lactamase; test: […] counterscreen for selective VIM-2 inhibitors: dose response biochemical high throughput screening assay to identify inhibitors of IMP-1 metallo-beta-lactamase.
Beta-lactamase [28] = target: T5, Beta-lactamase; test: IMP-1 metallo-beta-lactamase inhibitors, dose response, selectivity assay for VIM-2 inhibitor project, biochemical, epi-absorbance (AID 1920)

Chain of Tyrosine-protein phosphatase non-receptor type 11 (Q06124 whole entry): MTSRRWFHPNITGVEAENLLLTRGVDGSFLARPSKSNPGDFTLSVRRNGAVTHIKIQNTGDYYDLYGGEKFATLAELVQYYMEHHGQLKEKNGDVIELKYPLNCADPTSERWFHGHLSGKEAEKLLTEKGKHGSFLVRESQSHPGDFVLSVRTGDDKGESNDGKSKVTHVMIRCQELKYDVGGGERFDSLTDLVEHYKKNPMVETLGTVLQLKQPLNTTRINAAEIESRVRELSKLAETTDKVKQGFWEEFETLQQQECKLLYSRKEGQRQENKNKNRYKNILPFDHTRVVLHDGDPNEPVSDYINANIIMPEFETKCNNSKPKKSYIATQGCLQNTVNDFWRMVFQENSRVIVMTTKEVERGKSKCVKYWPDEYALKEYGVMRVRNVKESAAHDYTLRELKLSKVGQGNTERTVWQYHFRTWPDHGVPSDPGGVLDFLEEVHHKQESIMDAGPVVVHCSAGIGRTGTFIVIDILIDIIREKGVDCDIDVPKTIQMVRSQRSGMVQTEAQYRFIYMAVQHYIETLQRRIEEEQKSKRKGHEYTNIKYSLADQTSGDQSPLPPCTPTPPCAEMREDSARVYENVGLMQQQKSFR

## CC(C(=O)Nc1ccc(O)cc1C(=O)O)N1C(=O)/C(=C\c2cccs2)SC1=S (stereo not given)
[1]
  IC50: 1.5 µM (active)
[2]
  IC50: 5.64 µM (active)
[3]
  AC50: > 20 µM (inactive)
Genome polyprotein
  IC50: 47.9 µM (active)
[4]
  IC50: 20.5 µM (inactive)
[5]
  AC50: 49.3 µM (active)

## CC(C)CN(C(=O)COC(=O)C12CC3CC(CC(O)(C3)C1)C2)C1CCS(=O)(=O)C1 (stereo not given)
[6]
  AC50: 0.252 µM (active)
[7]
  AC50: 0.209 µM (active)

## COc1ccc(-c2cc(=O)oc3c(C)c(OCC(=O)NCCCn4ccnc4)ccc23)cc1
Beta-lactamase [8]
  IC50: > 59.6 µM (inactive)
Beta-lactamase [9]
  IC50: > 59.6 µM (inactive)

## COc1ccc(OC)c(CCNC(=O)C2CCN(c3nnc(-n4cccc4)s3)CC2)c1
[10]
  EC50: 2.85 µM (active)
[11]
  EC50: 1.51 µM (active)

## N#Cc1c(NCCN)nc(-c2ccco2)c2c1CCCC2
[12]
  EC50: > 91.2 µM (inactive)
[13]
  EC50: 10.8 µM (inactive)

## CN(c1ccccc1)c1ccc(/C=C(/CCC(=O)O)c2nc3ccccc3s2)cc1[N+](=O)[O-]
[14]
  IC50: 6.2 µM (active)
[15]
  IC50: 11.1 µM (active)
[16]
  IC50: 9.98 µM (active)
[17]
  IC50: > 66 µM (inactive)
Genome polyprotein
  IC50: 48.5 µM (active)
[18]
  IC50: 51.8 µM (inactive)

## O=C(Nc1ccc(S(=O)(=O)Nc2ccccn2)cc1)c1ccc([N+](=O)[O-])cc1Cl
[19]
  IC50: 3.85 µM (active)

## C[C@H]1CN([C@@H](C)CO)C(=O)c2cc(NC(=O)Nc3cccc4ccccc34)ccc2O[C@@H]1CN(C)C(=O)Nc1ccc(C(F)(F)F)cc1
[20]
  AC50: 108 µM (active)

## COc1ccccc1C(=O)Nc1ccc2c(c1)C(=O)N(C)[C@@H]1CC[C@H](CC(=O)NCCc3ccncc3)O[C@H]1CO2
[21]
  AbsAC35: 153.61 µM

## CCCCOc1cccc2c(=O)n(CC(=O)Nc3ccc4c(c3)OCCO4)ccc12
[22]
  IC50: 18.3 µM (inactive)
[23]
  IC50: 36.8 µM (inactive)

## CCc1nnc(S)n1/N=C/c1ccc(NC(C)=O)cc1
Beta-lactamase [24]
  IC50: > 59.6 µM (inactive)
Beta Lactamase [25]
  IC50: 6.32 µM (active)
Beta Lactamase [26]
  IC50: 2.08 µM (active)
Beta-lactamase [27]
  IC50: > 59.6 µM (inactive)
Beta-lactamase [28]
  IC50: > 59.6 µM (inactive)

Reference: ChEMBL document CHEMBL1201862, “PubChem BioAssay data set” (2004)
